In ChEMBL document CHEMBL3875185, “Structure-anticonvulsant activity studies in the group of (E)-N-cinnamoyl aminoalkanols derivatives monosubstituted in phenyl ring with 4-Cl, 4-CH3 or 2-CH3” (Bioorg Med Chem, 2017):
The source made the active and inactive calls. No cut-off for these calls is given here.

Legend:
[1] = molecular target: T1, Vasoactive intestinal polypeptide receptor 1 (Homo sapiens) (UniProt P32241); assay: Displacement of [125I]VIP from human recombinant VPAC1 receptor expressed in CHO cells at 100 uM measured after 60 mins by scintillation counting method relative to control; assay type: cell-based
T1 sequence (whole entry): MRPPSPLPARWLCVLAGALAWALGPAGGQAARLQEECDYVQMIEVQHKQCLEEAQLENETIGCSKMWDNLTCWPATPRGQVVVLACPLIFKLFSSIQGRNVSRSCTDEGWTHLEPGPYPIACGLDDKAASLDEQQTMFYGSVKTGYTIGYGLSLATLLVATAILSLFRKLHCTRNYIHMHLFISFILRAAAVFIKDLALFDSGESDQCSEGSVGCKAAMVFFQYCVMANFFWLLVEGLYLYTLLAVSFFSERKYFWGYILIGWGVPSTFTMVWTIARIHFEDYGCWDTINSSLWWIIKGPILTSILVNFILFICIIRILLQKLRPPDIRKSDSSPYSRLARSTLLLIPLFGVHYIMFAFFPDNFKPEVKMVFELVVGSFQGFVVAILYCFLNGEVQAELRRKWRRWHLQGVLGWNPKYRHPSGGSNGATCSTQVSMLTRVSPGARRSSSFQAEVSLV

Mus musculus [2] = assay: Anticonvulsant activity in 6-Hz induced seizure mouse model assessed as restoration of normal activity within 10 secs from stimulation at 100 mg/kg, ip at 32 mA measured at […] post dose; assay type: functional, organism-based
[3] = Neurotoxicity in ip dosed mouse; assay type: toxicity, organism-based; settings: in vivo
[4] = molecular target: T2, Cholecystokinin receptor type A (Homo sapiens) (UniProt P32238); assay: Displacement of [125I]CCK-8s from human recombinant CCK1 receptor expressed in CHO cells at 100 uM measured after 60 mins by scintillation counting method relative to control; assay type: cell-based
T2 sequence (whole entry): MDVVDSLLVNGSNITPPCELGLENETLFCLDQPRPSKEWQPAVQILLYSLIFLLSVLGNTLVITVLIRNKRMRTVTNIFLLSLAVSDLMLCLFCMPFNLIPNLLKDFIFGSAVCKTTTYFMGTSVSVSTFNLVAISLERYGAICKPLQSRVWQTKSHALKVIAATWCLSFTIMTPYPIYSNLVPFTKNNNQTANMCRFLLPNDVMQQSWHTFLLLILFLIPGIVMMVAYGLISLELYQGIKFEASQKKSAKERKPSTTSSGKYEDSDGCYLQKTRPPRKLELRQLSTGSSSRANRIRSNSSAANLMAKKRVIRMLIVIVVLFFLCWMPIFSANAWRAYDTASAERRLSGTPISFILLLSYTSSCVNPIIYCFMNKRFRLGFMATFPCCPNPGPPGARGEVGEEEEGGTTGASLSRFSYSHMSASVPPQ

[5] = molecular target: Cannabinoid receptor 1 (Homo sapiens) (UniProt P21554); assay: Displacement of [3H]CP 55940 from human recombinant CB1 receptor expressed in CHO cells at 100 uM measured after 120 mins by scintillation counting method relative to control; assay type: cell-based
Rattus norvegicus [6] = assay: Neurotoxicity in Sprague-Dawley rat assessed as behavioral change at 30 mg/kg, po measured at […] post dose; assay type: toxicity, organism-based; settings: in vivo
[7] = molecular target: 5-hydroxytryptamine receptor 2B (Homo sapiens) (UniProt P41595); assay: Displacement of [125I]DOI from human recombinant 5HT2B receptor expressed in CHO cells at 100 uM measured after 60 mins by scintillation counting method relative to control; assay type: cell-based
[8] = molecular target: 5-hydroxytryptamine receptor 1B (Rattus norvegicus) (UniProt P28564); assay: Displacement of [125I]CYP from rat cerebral cortex 5HT1B receptor at 100 uM measured after 120 mins by scintillation counting method relative to control
[9] = molecular target: Adrenergic receptor alpha-2 (Rattus norvegicus) (UniProt P22086+P19328+P22909); assay: Displacement of [3H]RX 821002 from rat cerebral cortex alpha-2 adrenergic receptor at 100 uM measured after 60 mins by scintillation counting method relative to control
[10] = molecular target: T3, Adenosine receptor A3 (Homo sapiens) (UniProt P0DMS8); assay: Displacement of [125I]AB-MECA from human recombinant adenosine receptor A3 expressed in HEK293 cells at 100 uM measured after 120 mins by scintillation counting method relative to control; assay type: cell-based
T3 sequence (whole entry): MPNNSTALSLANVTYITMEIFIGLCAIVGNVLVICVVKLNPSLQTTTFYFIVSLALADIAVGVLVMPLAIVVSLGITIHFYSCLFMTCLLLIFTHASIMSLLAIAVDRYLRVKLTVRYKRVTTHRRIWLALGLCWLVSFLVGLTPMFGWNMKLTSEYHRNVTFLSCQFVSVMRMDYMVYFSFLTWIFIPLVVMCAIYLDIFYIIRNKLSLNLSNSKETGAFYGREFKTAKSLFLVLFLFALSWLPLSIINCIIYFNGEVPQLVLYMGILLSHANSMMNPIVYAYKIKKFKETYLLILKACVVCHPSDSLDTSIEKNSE

Mus musculus [11] = assay: Anticonvulsant activity in maximal electroshock induced seizure mouse model assessed as suppression in hindlimb tonic extension at 300 mg/kg, ip measured at 0.5 hrs post dose; assay type: functional, organism-based
Mus musculus [12] = assay: Anticonvulsant activity in ip dosed maximal electroshock induced seizure mouse model assessed as suppression in hindlimb tonic extension; assay type: functional
Rattus norvegicus [13] = assay: Neurotoxicity in Sprague-Dawley rat assessed as behavioral change at 30 mg/kg, po measured at 1 hr post dose; assay type: toxicity, organism-based; settings: in vivo
[14] = molecular target: Delta-type opioid receptor (Homo sapiens) (UniProt P41143); assay: Displacement of [3H]DADLE from human recombinant delta opioid receptor expressed in CHO cells at 100 uM measured after 120 mins by scintillation counting method relative to control; assay type: cell-based
[15] = molecular target: T4, Muscarinic acetylcholine receptor M5 (Homo sapiens) (UniProt P08912); assay: Displacement of [3H]4-DAMP from human recombinant M5 receptor expressed in CHO cells at 100 uM measured after 60 mins by scintillation counting method relative to control; assay type: cell-based
T4 sequence (whole entry): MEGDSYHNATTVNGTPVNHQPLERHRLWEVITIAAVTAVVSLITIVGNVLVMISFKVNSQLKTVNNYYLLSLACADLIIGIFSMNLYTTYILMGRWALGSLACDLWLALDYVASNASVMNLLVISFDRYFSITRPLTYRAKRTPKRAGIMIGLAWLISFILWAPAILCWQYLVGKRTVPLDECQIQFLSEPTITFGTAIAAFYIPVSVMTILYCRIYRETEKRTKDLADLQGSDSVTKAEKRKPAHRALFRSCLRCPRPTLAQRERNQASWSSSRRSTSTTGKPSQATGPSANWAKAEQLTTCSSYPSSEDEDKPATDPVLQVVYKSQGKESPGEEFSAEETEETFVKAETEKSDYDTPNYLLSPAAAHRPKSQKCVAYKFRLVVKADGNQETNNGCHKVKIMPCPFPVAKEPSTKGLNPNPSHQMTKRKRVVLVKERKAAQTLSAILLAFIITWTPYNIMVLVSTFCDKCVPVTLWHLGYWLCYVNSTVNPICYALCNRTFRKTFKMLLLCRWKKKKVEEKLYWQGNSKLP

Rattus norvegicus [16] = assay: Anticonvulsant activity in ip dosed maximal electroshock induced seizure Sprague-Dawley rat model assessed as suppression in hindlimb tonic extension; assay type: functional

Sequence of 5-hydroxytryptamine receptor 2B (Homo sapiens) (P41595 whole entry): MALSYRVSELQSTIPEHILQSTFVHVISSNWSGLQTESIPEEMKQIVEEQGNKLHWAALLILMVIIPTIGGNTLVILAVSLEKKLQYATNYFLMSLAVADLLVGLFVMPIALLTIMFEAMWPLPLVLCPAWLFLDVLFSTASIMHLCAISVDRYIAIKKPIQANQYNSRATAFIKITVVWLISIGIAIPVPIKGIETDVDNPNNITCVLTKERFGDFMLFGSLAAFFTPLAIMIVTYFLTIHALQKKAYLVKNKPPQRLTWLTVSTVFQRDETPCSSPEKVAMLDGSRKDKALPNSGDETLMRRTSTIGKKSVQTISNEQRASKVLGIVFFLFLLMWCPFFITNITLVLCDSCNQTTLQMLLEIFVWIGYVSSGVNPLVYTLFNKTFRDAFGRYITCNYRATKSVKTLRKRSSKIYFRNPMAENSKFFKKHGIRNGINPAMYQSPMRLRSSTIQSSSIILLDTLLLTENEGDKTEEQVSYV
Sequence of 5-hydroxytryptamine receptor 1B (Rattus norvegicus) (P28564 whole entry): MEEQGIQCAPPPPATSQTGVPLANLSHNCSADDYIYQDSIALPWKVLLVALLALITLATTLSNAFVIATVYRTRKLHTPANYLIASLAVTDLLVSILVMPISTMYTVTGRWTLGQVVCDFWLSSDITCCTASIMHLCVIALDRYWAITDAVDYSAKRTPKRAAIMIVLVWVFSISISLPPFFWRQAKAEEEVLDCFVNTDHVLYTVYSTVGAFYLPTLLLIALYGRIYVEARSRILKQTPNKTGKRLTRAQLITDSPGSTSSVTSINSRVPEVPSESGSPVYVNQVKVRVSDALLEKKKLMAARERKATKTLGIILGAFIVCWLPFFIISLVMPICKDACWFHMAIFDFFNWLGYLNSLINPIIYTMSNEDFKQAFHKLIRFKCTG
Sequence of Delta-type opioid receptor (Homo sapiens) (P41143 whole entry): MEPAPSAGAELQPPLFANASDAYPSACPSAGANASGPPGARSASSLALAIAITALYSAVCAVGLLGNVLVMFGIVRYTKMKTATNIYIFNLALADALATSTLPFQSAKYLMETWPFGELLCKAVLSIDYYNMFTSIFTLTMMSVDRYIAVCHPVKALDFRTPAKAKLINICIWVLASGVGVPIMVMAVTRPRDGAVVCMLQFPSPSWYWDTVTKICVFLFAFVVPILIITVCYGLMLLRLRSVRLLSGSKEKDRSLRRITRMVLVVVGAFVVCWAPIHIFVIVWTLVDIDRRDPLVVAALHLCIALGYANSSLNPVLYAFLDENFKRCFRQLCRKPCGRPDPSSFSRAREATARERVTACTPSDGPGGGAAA
Sequence of Cannabinoid receptor 1 (Homo sapiens) (P21554 whole entry): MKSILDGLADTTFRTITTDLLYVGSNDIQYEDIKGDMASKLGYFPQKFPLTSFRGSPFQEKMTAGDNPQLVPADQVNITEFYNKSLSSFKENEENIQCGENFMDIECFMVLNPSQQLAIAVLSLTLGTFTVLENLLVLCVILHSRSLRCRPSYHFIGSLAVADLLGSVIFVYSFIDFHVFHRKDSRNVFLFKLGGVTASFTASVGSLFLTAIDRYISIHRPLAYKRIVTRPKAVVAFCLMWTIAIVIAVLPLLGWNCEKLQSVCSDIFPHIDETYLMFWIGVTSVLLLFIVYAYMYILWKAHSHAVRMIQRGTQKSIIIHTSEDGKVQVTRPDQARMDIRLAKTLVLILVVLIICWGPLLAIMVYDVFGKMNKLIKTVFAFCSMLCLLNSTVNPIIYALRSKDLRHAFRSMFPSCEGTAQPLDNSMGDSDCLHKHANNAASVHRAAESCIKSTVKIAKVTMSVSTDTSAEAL

SMILES	inhibition [1] [%]	Activity (Mus musculus [2])	TD50 [3] [mg/kg]	inhibition [4] [%]	inhibition [5] [%]	Activity (Rattus norvegicus [6])	inhibition [7] [%]	inhibition [8] [%]	inhibition [9] [%]	inhibition [10] [%]	Activity (Mus musculus [11])	ED50 (Mus musculus [12]) [mg/kg]	Activity (Rattus norvegicus [13])	inhibition [14] [%]	inhibition [15] [%]	ED50 (Rattus norvegicus [16]) [mg/kg]
Cc1ccccc1/C=C/C(=O)N[C@@H](C)CO	2	Active	150	-5.8	9.1	Non-Toxic	79.8	32.4	10.8	17.1	Active	42.6	Non-Toxic	3	-7.5	16.3
CC(O)CNC(=O)/C=C/c1ccc(Cl)cc1 (stereo not drawn)	-0.4	Active	180	26	4.7	Non-Toxic	41.6	-3.2	25.1	29.9	Active	55.6	Non-Toxic	3.2	-5.9	41.9
CCC(CO)NC(=O)/C=C/c1ccc(Cl)cc1 (stereo not drawn)	4.8	Active	196	11	11.5	Non-Toxic	58.2	-1.5	34.8	52.5	Active	53.8	Non-Toxic	6	-9.2	21.2
